Measurements taken from patent US20240174691A1, “PYRIMIDINE-FUSED CYCLIC COMPOUND, PREPARATION METHOD THEREFOR AND USE THEREOF” (GENFLEET THERAPEUTICS (SHANGHAI) INC., priority 2021, published 2024).

Tests used:
Format in all cases: cell-based, human
AsPC-1 cells (KRAS G12D) = test: Cell proliferation inhibition assay, 3D cell model (CellTiter-Glo 3D), AsPC-1; conditions: AsPC-1 3D sphere plate, 5 days incubation
Excerpt: (§1) AsPC-1 was purchased from ATCC; catalog No: CRL-1682; AGS was purchased from ATCC; catalog No: CRL-1739; RPMI1640 was purchased from Gibco; catalog No: 11875-093 2235123; F12K was purchased from Gibco; catalog No: 21127-022; FBS was purchased from Gibco; catalog No: 10099-141C; trypsin (containing EDTA) was purchased from Gibco; catalog No: 25200-072; CellTiter Glo-3D was purchased from Progema; catalog No: G9683; 384-well sphere plates were purchased from Corning; catalog No: 3830; opaque 384-well plates with a white background were purchased from Corning; catalog No: 3570; cell counters were purchased from CHEMOMETEC; model: NC-200; microplate reader was purchased from PerkinElmer; model: Envison;
(§2) AsPC-1 is an endogenous human pancreatic cancer cell containing KRAS^G12D mutation, cultured in RPMI-1640 medium containing 10% FBS; AGS is a human gastric cancer cell line containing KRAS^G12D, cultured in F-12K medium containing 10% FBS. Cells in the logarithmic growth phase were taken, digested with trypsin (containing EDTA), collected, and counted. 800 AsPC-1 cells/well or 400 AGS cells/well, respectively, were seeded in a 384-well sphere plate and cultured overnight at 5% CO2 to establish a 3D cell model. 1000× stock solutions of compounds at a 3.16-fold concentration gradient of were prepared using DMSO, diluted 100-fold into a 10× compound stock solution using the medium described above. The 10× compound stock solution was added to each cell on 2nd day after cell seeding at a final concentration of 1× and a DMSO content of 0.1%. DMSO was used as an experimental control, and the medium was used as blank. After the addition of the compounds, the cells were incubated for 5 days. 30 μl of CellTiter-Glo work solution was added to each well, mixed well, and incubated for 30 minutes. After standing at room temperature for 30 minutes, 40 μl of the mixed solution was transferred to an opaque 384-well plate with a white clear bottom. Luminescence chemiluminescence value was read by a microplate reader, and the cell proliferation inhibition rate (IR (%)=(RLU control−RLU compound)/(RLU control−RLU blank)×100%) was calculated. The gradiently diluted concentration of the compounds and corresponding cell proliferation inhibition rate were fitted using XLFit four-parameters method, and the IC50 value was calculated.

AGS cells (KRAS G12D) = test: Cell proliferation inhibition assay, 3D cell model (CellTiter-Glo 3D), AGS; conditions: AGS 3D sphere plate, 5 days incubation
Excerpt: as §1, §2

[1] = test system: p-ERK in AGS cells containing the KRAS G12D mutation; test: Cell p-ERK assay (HTRF, Advance ERK phospho-T202/Y204 kit); conditions: 3 hours incubation with compound
Description: AGS was purchased from ATCC; catalog No: CRL-1739; F12K was purchased from Gibco; catalog No: 21127-022; FBS was purchased from Gibco; catalog No: 10099-141C; trypsin (containing EDTA) was purchased from Gibco; catalog No: 25200-072; DMSO was purchased from VWRAMMESCO; catalog No: 0231-500ML; 96-well cell culture plates were purchased from Corning; catalog No: 3599; opaque 96-well plates with a white background were purchased from Cisbio; catalog No: 66PL96025; Advance ERK phospho-T202/Y204 kit was purchased from Cisbio; catalog No: 64AERPEH; cell counters were purchased from CHEMOMETEC; model No: NC-200; microplate reader was purchased from PerkinElmer; model No: Envison.
AGS is an endogenous human gastric adenocarcinoma cell line containing the KRAS^G12D mutation, cultured in F12K+10% FBS medium. On the first day of the experiment, cells in the logarithmic growth phase were taken, digested with trypsin (containing EDTA), collected, and counted. Approximately 20000 cells/well were seeded in a 96-well cell culture plate and cultured overnight in an incubator with 5% CO2. 1000× stock solutions of compounds at a 3.16-fold concentration gradient were prepared using DMSO, and diluted 200-fold into a 5× compound stock solution using the medium described above. The 5× compound stock solution was added to each cell culturing well the day after cell seeding at a final concentration of 1× and a DMSO content of 0.1%. DMSO was used as an experimental control. After the compound was added and the incubation was kept for 3 hours, the medium in the culture wells was removed. 50 μl of Cell lysis solution (from Advance ERK phospho-T202/Y204 kit, the same below) was added to each well, mixed well, and incubated for 30 minutes and then 16 μl of the mixed solution was transferred to an opaque 96-well plate with a white background. In addition, 16 μl of cell lysis solution was added to a well as a blank well. After transferring, 4 μl of p-ERK HTRF antibody mixture (from Advance ERK phospho-T202/Y204 kit) was added to each well. After incubation for 4 hours, HTRF fluorescence value (RLU) was read by a microplate reader, and p-ERK level inhibition rate (IR (%)=(RLU control−RLU compound)/(RLU control−RLU blank)×100%) of the compounds was calculated. The concentration of the compounds and corresponding cell p-ERK level inhibition rate were fitted using Prism 8 four-parameters method, and the IC50 value was calculated.

Compound	IC50 (AsPC-1 cells (KRAS G12D); Homo sapiens, ASPC1, 120 h) [nM]	IC50 (AGS cells (KRAS G12D); Homo sapiens, 120 h) [nM]	IC50 ([1]; Homo sapiens) [nM]	IC50 (AsPC-1 cells (KRAS G12D)) [nM]	IC50 (AGS cells (KRAS G12D)) [nM]	IC50 [1] [nM]
C#Cc1c(F)ccc2cc(O)cc(-c3nc4c5c(nc(OC[C@@]67CCCN6C[C@H](F)C7)nc5c3F)N3C[C@H]5CC[C@H](N5)[C@H]3CO4)c12 [Z131-1]	32.8	2.53	1.58			
C#Cc1cccc2cccc(-c3nc4c5c(nc(OC[C@@]67CCCN6C[C@H](F)C7)nc5c3F)N3C[C@H]5CC[C@H](N5)[C@H]3CO4)c12 [Z350, (5aS,6S,9R)-2-(8-ethynaphthalen-1-yl)-1-fluoro-12-(((2R,7aS)-2-fluorotetrahydro-1H-pyrrolizin-7a(5H)-yl)methoxy)-5a,6,7,8,9,10-hexahydro-5H-4-oxo-3,10a,11,13,14-pentaaza-6,9-methanonaphtho[1,8-ab]heptene]	203	181	47			
CCc1cccc2cc(O)cc(-c3cc4nc(OC[C@@]56CCCN5C[C@H](F)C6)nc5c4c(c3Cl)OC[C@@H]3[C@@H]4CC[C@H](CN53)N4)c12 [Z381, 4-((5aS,6S,9R)-3-chloro-13-((2R,7aS)-2-fluorotetrahydro-1H-pyrrolizin-7a(5H)-ylmethoxy)-5a,6,7,8,9,10-hexahydro-5H-6,9-epiminoazepino[2′,1′:3,4][1, 4]oxazepino[5,6,7-de]quinazolin-2-yl)-5-ethylnaphthalen-2-ol]			436			
CCc1cccc2cc(O)cc(-c3cc4nc(OC[C@@]56CCCN5C[C@H](F)C6)nc5c4c(n3)OC[C@@H]3[C@@H]4CC[C@H](CN53)N4)c12 [Z2, 5-ethyl-4-((5aS,6S,9R)-12-(((2R,7aS)-2-fluorotetrahydro-1H-pyrrolizin-7a(5H)-yl)methoxy)-5a,6,7,8,9,10-hexahydro-5H-4-oxa-3,10a,11,13,14-pentaaza-6,9-methanonaphtho[1,8-ab]hepten-2-yl)naphthalen-2-ol]	127	10.3	10.7			
CCc1cccc2cc(O)cc(-c3nc4c5c(nc(OC[C@@]67CCCN6C[C@H](F)C7)nc5c3F)N3C[C@H]5CC[C@H](N5)[C@H]3CO4)c12 [Z140-1, 5-ethyl-4-((5aS,6S,9R)-1-fluoro-12-(((2R,7aS)-2-fluorotetrahydro-1H-pyrrolizin-7a(5H)-yl)methoxy)-5a,6,7,8,9,10-hexahydro-5H-4-oxa-3,10a,11,13,14-pentaaza-6,9-methanonaphtho[1,8-ab]hepten-2-yl)naphthalen-2-ol]				21.1	4	2.85
